Earlier results, collected in US8062679B2, “Composition for maintaining androgen and androgen-like uptake potential by cells” (Northern Innovations and Formulations Corp., priority 2007, dated 2011).
Read-outs that look alike come from different tables or passages of the source.

Tests used:
[1] = human blood
[2] = system: mitochondrial permeability transition
[3] = system: lutenizing hormone (LH); conditions: after exercise, animals
[4] = fights ROS under low oxygen tension
[5] = prolonged L-carnitine administration
[6] = three weeks, equivalent of 2 g elemental carnitine per day; cross-over, placebo controlled
[7] = target: T1, aromatase (Homo sapiens, UniProt P11511)
T1 sequence (P11511 1-503): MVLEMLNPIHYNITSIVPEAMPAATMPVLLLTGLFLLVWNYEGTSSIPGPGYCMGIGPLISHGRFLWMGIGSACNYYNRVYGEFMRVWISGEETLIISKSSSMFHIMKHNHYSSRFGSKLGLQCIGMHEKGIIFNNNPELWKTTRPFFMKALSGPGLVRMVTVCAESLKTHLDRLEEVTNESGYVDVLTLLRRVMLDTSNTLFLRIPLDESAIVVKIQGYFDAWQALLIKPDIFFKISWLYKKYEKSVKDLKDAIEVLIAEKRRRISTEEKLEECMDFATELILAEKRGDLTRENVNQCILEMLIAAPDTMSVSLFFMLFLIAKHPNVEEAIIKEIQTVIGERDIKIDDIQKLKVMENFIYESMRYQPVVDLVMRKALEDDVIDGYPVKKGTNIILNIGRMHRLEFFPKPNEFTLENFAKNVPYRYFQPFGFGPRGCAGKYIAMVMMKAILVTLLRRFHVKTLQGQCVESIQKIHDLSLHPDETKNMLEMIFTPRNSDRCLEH

[8] = system: GH
[9] = system: GH; remark: listed apart in the source
[10] = system: GH; conditions: oral, both 0.5 mg and 5.0 mg

## COC1=C(OC)C(=O)C(C/C=C(\C)CC/C=C(\C)CC/C=C(\C)CC/C=C(\C)CC/C=C(\C)CC/C=C(\C)CC/C=C(\C)CC/C=C(\C)CC/C=C(\C)CCC=C(C)C)=C(C)C1=O [CoQ10, ubidecarenone]
[1]
  antioxidant activity: potent antioxidant
Individuals suffering from angina, vs untreated groups
  exercise duration: able to exercise for longer periods
Patients with disease conditions involving energy production deficits
  myocardial function: improved

## CCCCCCCCCCC1=C(C)C(=O)C(OC)=C(OC)C1=O [Decylubiquinone]
[2]
  redox-dependent mitochondrial permeability transition: effectively block

## CC(C)=CCC[C@](C)(O[C@@H]1O[C@H](CO[C@@H]2O[C@H](CO)[C@@H](O)[C@H](O)[C@H]2O)[C@@H](O)[C@H](O)[C@H]1O)[C@H]1CC[C@]2(C)[C@@H]1[C@H](O)C[C@@H]1[C@@]3(C)CC[C@H](O[C@@H]4O[C@H](CO)[C@@H](O)[C@H](O)[C@H]4O[C@@H]4O[C@H](CO)[C@@H](O)[C@H](O)[C@H]4O)C(C)(C)[C@@H]3CC[C@]12C [Ginsenoside Rb1]
[3]
  secretion of lutenizing hormone (LH): stimulate the secretion

## COC1=C(OC)C(=O)C(CCCCCCCCCCO)=C(C)C1=O [Idebenone]
[4]
  antioxidant activity: potent antioxidant

## C[N+](C)(C)C[C@H](O)CC(=O)[O-] [L-carnitine]
[5]
  pain and damage from eccentric muscular effort: protective effect

## C[N+](C)(C)C[C@H](O)CC(=O)[O-].O=C(O)C(O)C(O)C(=O)O [LCLT, L-carnitine L-tartrate]
[6]
  muscle damage produced by an acute bout of high-intensity resistance exercise: reduce muscle damage

## CCCCC/C=C\C/C=C\CCCCCCCC(=O)O [linoleic]
[7]
  aromatase activity: efficient suppressors

## CC/C=C\C/C=C\C/C=C\CCCCCCCC(=O)O [linolenic]
[7]
  aromatase activity: efficient suppressors

## COc1ccc2[nH]cc(CCNC(C)=O)c2c1 [melatonin, N-Acetyl-5-methoxytryptamine]
[8]; 5.0 mg orally 60 minutes prior to bicycle exercise at 70% VO2max, vs placebo
  GH, area under the curve: significant increases
[8]; 5.0 mg orally 60 minutes prior to exercise
  time of GH peak following exercise: 30 min
[9]; 0.5 and 5.0 mg, weight-trained young males
  serum free GH following a single bout of heavy-resistance exercise: significantly more effective than placebo
[9]; pre- and post-exercise periods
  serum IGFBP-3: notable increases
[10]
  plasma GH concentrations: significant increase
  time of peak plasma GH: 60 min

## conjugated linoleic acids
[7]
  aromatase activity: efficient suppressors
